A short description of data set [1]: Solubility in aqueous media / buffer. Type of data set: physicochemical.
Another data set addresses T1, Human recombinant RET (Homo sapiens, UniProt P07949).
T1 construct: purchased Promega; host or cells: Sf9 insect cells
Kind of data set: In vitro (cell-free) RET kinase incubation, luminescent ADP detection. To be noted: for IC50: read-out: IC50, RET-induced ATP turnover; for RET kinase activity: 1.6 μM. Type of data set: biochemical. On the procedure:
With the caged compound in hand, the ability to photocontrol the inhibition of RET kinase was assessed. For this purpose, an in vitro assay with purified RET kinase was used to measure ADP production during substrate phosphorylation. Compound 6 was added to two parallel preparations comprising RET kinase and substrate. One preparation was exposed to light (365 nm, 15 min), while the other was kept in the dark.
After adding ATP and incubating at room temperature for 30 min, the relative ATP turnover was assessed. […] For example; irradiating an administered dose of 1.6 μM 6, would modulate the RET kinase activity from 90% to 10%.
Human recombinant RET expressed in Sf9 insect cells (Specific Activity: 220 nmol^−1min^−1mg^−1), substrate (IGFlRtide), and ATP were purchased in an assay ready kit from Promega[37] (Promega Corporation, Madison WI 53711 USA) and used as received. Incubations were performed in 40 mM Tris buffer (pH 7.4, 1 vol% DMSO) supplemented with 50 μM DTT and 20 mM MgCl2 in a white flat-bottom 96-well plate. Incubation volume was 25 μL. Brief procedure; Kinase (0.8 μg/mL), substrate (40 μg/mL), ATP (10 μM) and inhibitor were combined and incubated for 30 min at room temperature in the dark, with shaking. After the kinase reaction, two detection reagents were added in a stepwise manner. The first reagent depleted the remaining (unreacted) ATP in the reaction mix. The second reagent converted the ADP produced in the kinase reaction to ATP and generated a luminescence signal using a luciferase/luciferin reaction. The light generated is proportional to the amount ADP present and, consequently, to the kinase activity. Luminescence was recorded on a BMG Labtech Fluostar Omega luminometer. All incubations were done in duplicates.
2. Fitting of dose-response data
Positive and negative control experiments with and without light exposure (15 min, 365 nm) were run in parallel to the inhibitor incubations. The positive control was identical to the inhibitor experiment but with buffer additions instead of ATP and Neurturin for the cell-free and live-cell incubation, respectively. The negative control was identical to the inhibitor experiment but with inhibitor diluent (DMSO) addition instead of inhibitor. The intensity reading from the positive control was subtracted from the corresponding value from the inhibitor incubation. This was followed by normalization to the negative control reading. The resulting luminescence intensities (I) at the applied inhibitor concentrations (C) were fitted to […]
A global, error-weighted (instrumental) fit was performed by making the top- (A2) and bottom (A1) asymptotes shared parameters for the included data sets. […]
140/2013, and followed the guidelines of the Swedish National Board for Laboratory

Another data set addresses RET kinase (c-RET-GFRα2) (Homo sapiens, UniProt P07949). Nature of the data set: PathHunter express c-RET-GFRα2 functional live-cell assay (neurturin stimulated). Type of data set: cell-based.
In data set [2] the test system is zebrafish embryos tg(olig2:dsRed) (ret). Nature of the data set: Motoneuron development in zebrafish embryos, confocal imaging at 2 dpf. Type of data set: in vivo, Danio rerio. On the procedure: In the light of this, we chose to investigate the decaging of 6 in the transgenic zebrafish line tg(olig2:dsRed)[33], and any effect this may have on the motoneuron development. The choice of zebrafish line is motivated by the labeling of ventral spinal cord precursor cells that produce motoneurons and oligodendrocytes, facilitating the assessment of altered motoneuron phenotypes. Transgenic zebrafish embryos were incubated in 10 μM and 50 μM solutions of 6 at 3 hours post fertilization (hpf) for 11 h. We opted for decaging at 14 hpf since primary motoneurons start to sprout growth cones at 18 hpf[36]. We hypothesized that blocking ret signalling at this time point would primarily affect axonal extension and not formation of motoneurons. After washing with fresh medium the embryos were irradiated for 15 min (365 nm). The embryos were left to develop until 2 days post fertilization (dpf) when their spinal cords were scanned with confocal imaging. […] All experimental procedures were carried out in compliance with relevant guidelines and regulations of the Swedish National Board for Laboratory Animals. The protocols were also approved by the medical ethics committee of University of Gothenburg. Zebrafish (Danio rerio) embryos of strain tg(olig2:dsRed)[32] were kept at the Institute of Neuroscience and Physiology, University of Gothenburg. Fertilized eggs were collected and kept in petri dishes containing embryo medium (EM; 5.03 mM NaCl, 0.17 mM KCl, 0.33 mM CaCl2·2H2O, 0.33 mM MgCl2·6H2O), in darkness, in an incubator at 28.5 °C. Eggs were incubated in either 6 or 1% DMSO from 3 hours post-fertilization (hpf) and then dechorinated at 9 hpf to allow for better compound uptake. After 11 hours of incubation, 14 hpf embryos were washed three times with EM and moved to clean petri dishes containing 1-phenyl 2-thiourea (PTU, 0,003%, Sigma) and diluted in EM to prevent pigmentation. Embryos were irradiated for 15 min (365 nm) and then kept in the incubator until time of confocal imaging. A second set of animals were incubated in 6 from 14 hpf to 24 hpf, after which animals were washed and illuminated in the same way as the first group. Prior to imaging at 2 days post-fertilization (dpf), the embryos were anesthetized using 0.02% tricaine methanesulfonate (MS-222) diluted in EM and embedded in low-melting agarose. The imaging was performed on a ZEISS LSM710 confocal microscope at the Centre for Cellular Imaging at the Sahlgrenska Academy. Stacks of labeled spinal cord neurons were collected using a 561 nm laser. Maximal intensity pictures of spinal cord hemisegments and axonal phenotypes were analyzed using ImageJ (U. S. National Institutes of Health, Bethesda, Maryland, USA) according to Abramsson et al. 2013[38].

Another data set deals with RET. More on the design: method as in PMID 22559926. To be noted: cited from earlier work.
Data set [3] deals with GDNF-induced RET phosphorylation of ERK1/2. More on the design: method as in PMID 22559926. The settings on record: cited from earlier work.
For data set [4], the system named is RET/PTC1 expressing TPC1 cells. The arrangement: method as in PMID 25409876. The settings on record: cited from earlier work.
In the next data set the test system is 8505C cells. The arrangement: method as in PMID 25409876. The settings on record: cited from earlier work.
The next data set has as its system C643 cells. More on the design: method as in PMID 25409876. The settings on record: cited from earlier work.
For the next data set, the system named is MCF7 cells. The arrangement: method as in PMID 25409876. The settings on record: cited from earlier work.
In data set [5] the test system is cell lines used (TPC1, 8505C, C643, MCF7). More on the design: method as in PMID 25409876. To be noted: any of the cell lines used; cited from earlier work.
The nature of data set [6]: Light-induced decaging (365 nm) monitored by HPLC. Type of data set: physicochemical. On the procedure: Indeed, this compound was soluble in aqueous buffer (1 vol% DMSO) up to 100 μM. Photoinduced cleavage of 6 was readily achieved with 365 nm light, as monitored by HPLC.
(§1) Steady state absorption measurements (for thermal stability assessment of 6, see Fig. S3) were carried out on a Cary Bio 50 UV/vis spectrometer equipped with a Varian PCB 1500 Water Peltier System thermostat for temperature control. Sample volume was 3.0 mL. […] Irradiation in the assays was accomplished by placing the lamp directly on top of the sample plates/dishes. It should be noted that the exact light conditions in the assays may differ slightly depending on the type of plates/dishes used (see Methods sections below for plate specifications).
Figure S1. Light-induced decaging of 6. A Tris buffer solution (1vol% DMSO) containing 100 µM 6 was successively subjected to t = 0, 3, 6, 9, 12, 15, 30, 60, and 90 min of 365 nm light. After each irradiation period, an aliquot was drawn and analyzed using HPLC with UV detection. The integrated areas for the chromatogram peaks associated with 1 (hollow squares) and 6 (solid circles) were fitted globally (shared time constant) to a first order exponential (solid line), yielding a time constant of τ = 9.6 min for the decaging of 6. It should be noted that the individually extracted time constants for […]
from the globally fitted value.
(§2) (1 picture or pasted object on this page, not shown here)

A short description of data set [7]: Thermal stability in aqueous buffer by UV/vis absorption. Type of data set: physicochemical. To be noted: 48 h, 37 °C, 10 mM phosphate buffer pH 7.0, 1 vol% DMSO. On the procedure: as §1
5.3 Thermal stability of 6 in 10 mM phosphate buffer, pH 7.
Figure S3. UV/vis absorption spectra of 6 in 10 mM phosphate buffer (pH 7.0, 1 vol% DMSO) at
t = 0 (solid black line), and after t = 48 h in 37 °C (dashed red line). Inset: Absorption at λ = 321 nm as
as §2

Where [8] appears, read: 100 µM 6 in Tris buffer 1 vol% DMSO.

The text below walks through data of PMC4547397, “A Caged Ret Kinase Inhibitor and its Effect on Motoneuron Development in Zebrafish Embryos” (Scientific Reports, 2015).

Entries after “also recorded” stand apart in the source; their conditions may differ. Read-outs that look alike come from different tables or passages of the source.

RET kinase (c-RET-GFRα2), sequence (P07949 29-1114): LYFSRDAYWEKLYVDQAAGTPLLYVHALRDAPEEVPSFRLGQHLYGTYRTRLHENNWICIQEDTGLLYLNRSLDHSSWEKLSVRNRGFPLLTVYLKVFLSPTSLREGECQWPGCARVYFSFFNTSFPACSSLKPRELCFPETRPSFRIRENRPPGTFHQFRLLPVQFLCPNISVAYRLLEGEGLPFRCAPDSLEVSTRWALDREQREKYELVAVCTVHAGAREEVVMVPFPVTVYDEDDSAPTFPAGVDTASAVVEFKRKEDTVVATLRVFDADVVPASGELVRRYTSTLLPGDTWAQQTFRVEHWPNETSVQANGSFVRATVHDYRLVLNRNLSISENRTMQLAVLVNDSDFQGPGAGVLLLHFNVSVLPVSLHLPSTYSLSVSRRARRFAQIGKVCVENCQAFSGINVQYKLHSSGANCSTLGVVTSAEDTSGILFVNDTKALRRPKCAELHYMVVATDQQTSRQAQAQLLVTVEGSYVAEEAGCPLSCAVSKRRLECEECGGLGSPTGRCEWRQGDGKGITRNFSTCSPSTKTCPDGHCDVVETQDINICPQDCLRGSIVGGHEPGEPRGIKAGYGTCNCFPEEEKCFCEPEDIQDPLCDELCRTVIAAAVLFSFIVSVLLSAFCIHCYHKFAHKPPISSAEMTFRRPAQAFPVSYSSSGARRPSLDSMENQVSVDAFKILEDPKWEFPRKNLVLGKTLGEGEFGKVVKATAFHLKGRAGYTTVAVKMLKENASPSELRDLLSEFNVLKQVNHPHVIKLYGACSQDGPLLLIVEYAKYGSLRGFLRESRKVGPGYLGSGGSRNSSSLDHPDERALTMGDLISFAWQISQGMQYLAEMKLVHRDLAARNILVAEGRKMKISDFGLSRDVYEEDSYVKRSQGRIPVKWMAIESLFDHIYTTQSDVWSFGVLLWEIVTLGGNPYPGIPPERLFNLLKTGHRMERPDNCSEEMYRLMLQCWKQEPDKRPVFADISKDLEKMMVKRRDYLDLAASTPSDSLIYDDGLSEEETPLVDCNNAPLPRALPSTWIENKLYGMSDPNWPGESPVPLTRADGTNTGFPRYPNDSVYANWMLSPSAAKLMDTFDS
T1 sequence (P07949 29-1114): as above
Experimental for RET kinase (c-RET-GFRα2): The photoactivation of 6 was also tested in a RET functional whole cell assay which utilizes β-galactosidase to produce a luminescent readout[24][25][26] (see Methods section for assay details). Compound 6 was added to live cells expressing RET kinase in two identical preparations, followed by 3 h preincubation at 37 °C. At this point, one preparation was exposed to light (365 nm, 15 min), while the other was kept in the dark. Again, 15 min is clearly not sufficient to complete the decaging (see above). Addition of the growth factor neurturin (required to activate the RET kinase) and incubation for 3 h at 22 °C allowed for activity-correlating signal induction using the supplemented detection reagents. […] To again exclude distortive effects of light on the cells, incubations without inhibitor were exposed to light.
PathHunter express c-RET-GFRα2 functional assay and recombinant human neurturin were purchased from DiscoveRx (DiscoveRx Corporation, Fremont CA 94538 USA) and used according to instructions. […] Incubations were performed in the provided assay buffer (1 vol% DMSO) in a white flat/clear-bottom 96-well plate. Incubation volume was 110 μL. Brief procedure; Cells were thawed and diluted to ca. 100 000 cells/mL, followed by plating and acclimatization in 37 °C, 5% CO2, humidified, environment for 48 h. Thereafter, the inhibitor was added and the plate was returned to 37 °C for 3 h. The cells were then stimulated with the GDNF-family growth factor neurturin (applied concentration: 15 ng/mL = EC80) and incubated 3 h at 22 °C in the dark. An activity-correlating luminescence signal was induced using the detection reagent provided in the kit according to the recommended protocol. Luminescence was recorded on a BMG Labtech Fluostar Omega luminometer. All incubations were done in duplicates.

Regarding `COc1cc(COC(=O)Nc2ncnc3c2c(C#Cc2ccccc2)nn3CCO)c([N+](=O)[O-])cc1OC` [compound 3], the “solubility in aqueous media” value in data set [1] was “too low to be practical for biological assays”.
Still for that read-out and setting: then `COc1cc(COC(=O)Nc2ncnc3c2c(C#Cc2ccccc2)nn3C(C)C)c([N+](=O)[O-])cc1OC` [compound 2], with “insufficiently soluble”.
As a reminder, the IC50 is the concentration that gives 50% inhibition. On to `CC(C)n1nc(C#Cc2ccccc2)c2c(N)ncnc21` [compound 1], for which the IC50 was 0.072 µM on Human recombinant RET (free inhibitor, no irradiation, 10 μM ATP, 30 min room temperature) and 0.47 µM against RET kinase (c-RET-GFRα2) (free inhibitor, no irradiation, 3 h preincubation 37 °C). The motoneuron axonal phenotype result in data set [2] (10 μM during development) and in data set [2] (50 μM for 90 min at 6 hpf) was “phenotype was also observed” each time. Also, in the data set on RET, the “in vitro activity against RET” value is recorded as “low nM range”. Also, in the data set on RET, the “selectivity profile toward RET” value was “partial inhibition of only six other tyrosine kinases”. Further, in data set [3], the “effect on GDNF-induced RET phosphorylation of ERK1/2” value was “inhibitory effect”. Also, the results for the “MAPK signalling and proliferation” value (in data set [4]; in the data set with 8505C cells; in the data set with C643 cells) were “inhibited”, “not” and “not”, respectively. Also, the “PI3K/Akt and MAPK signalling and estrogen receptor α (ERα) phosphorylation” value in the data set on MCF7 cells is on record as “inhibited”. Also, the proliferation result in the data set with MCF7 cells was “inhibit proliferation to a similar degree as tamoxifen”. The cytotoxicity entry in data set [5] was “No cytotoxicity was observed”.
Usually solubility stands for the dissolved amount per volume that the medium holds. With `COc1cc(COC(=O)Nc2ncnc3c2c(C#Cc2ccccc2)nn3C(C)C)c([N+](=O)[O-])cc1OCC(=O)O` [compound 6, 2-(4-((((1-isopropyl-3-(phenylethynyl)-1H-pyrazolo[3,4-d]pyrimidin-4-yl)carbamoyl)oxy)methyl)-2-methoxy-5-nitrophenoxy)acetic acid], the results for the RET kinase activity at Human recombinant RET (after irradiation) and at Human recombinant RET (before irradiation) were 10% and 90%, respectively. Besides, the “increase of inhibitory capability upon light exposure” value at Human recombinant RET (irradiated (365 nm, 15 min) vs non-irradiated) amounted to 12 fold. Further, the IC50 was found to be 6.8 µM at Human recombinant RET (non-irradiated (kept in the dark)) and 8.7 µM at RET kinase (c-RET-GFRα2) (irradiated (365 nm, 15 min)). The “IC50, live-cell RET activity” value against RET kinase (c-RET-GFRα2) (non-irradiated) was “no IC50 value could be obtained”. Further, the “partial inhibition of RET activity in live cells” value on RET kinase (c-RET-GFRα2) (non-irradiated, at concentrations higher than 6 μM) is “ca. 40%”. For the same molecule, the motoneuron axonal phenotype result in data set [2] (10 μM, irradiated 15 min at 14 hpf) is “virtually no effect”; in [2] (50 μM from 3 hpf for 11 h, irradiated 15 min 365 nm at 14 hpf, imaged 2 dpf), “motoneurons with shortened and malformed axons”; in data set [2] (irradiated at 24 hpf after 10 h of incubation and wash), “similar, but less severe, axonal phenotypes”; in data set [2] (non-irradiated embryos (50 μM)), “did not show any phenotypic anomalies”. In addition, the solubility in data set [1] (kinetic from dmso stock, aqueous buffer, 1 vol% DMSO) is at most 100 µM. The “exposure time required for complete (>99%) decaging” value in data set [6] was “at least 45 minutes”. For the same molecule, the “time constant τ, consumption of 6 (individual fit)” value in [6] (setting [8]) amounted to 8.7 min. In addition, the “time constant τ, liberation of 1 (individual fit)” value in data set [6] (setting [8]) came out at 13.1 min. In [6] (1.5 mW/cm^2, 100 µM in Tris buffer 1 vol% DMSO), the “time constant τ of decaging, global fit (first order)” value is on record as 9.6 min. Also, the “thermal stability (absorption spectrum)” value in [7] is listed as “no changes in the absorption spectrum were detected; also recorded: No signs of degradation”.
